Target: T1, ATP-binding cassette sub-family C member 4 (Homo sapiens, UniProt O15439)
T1 sequence (O15439 whole entry): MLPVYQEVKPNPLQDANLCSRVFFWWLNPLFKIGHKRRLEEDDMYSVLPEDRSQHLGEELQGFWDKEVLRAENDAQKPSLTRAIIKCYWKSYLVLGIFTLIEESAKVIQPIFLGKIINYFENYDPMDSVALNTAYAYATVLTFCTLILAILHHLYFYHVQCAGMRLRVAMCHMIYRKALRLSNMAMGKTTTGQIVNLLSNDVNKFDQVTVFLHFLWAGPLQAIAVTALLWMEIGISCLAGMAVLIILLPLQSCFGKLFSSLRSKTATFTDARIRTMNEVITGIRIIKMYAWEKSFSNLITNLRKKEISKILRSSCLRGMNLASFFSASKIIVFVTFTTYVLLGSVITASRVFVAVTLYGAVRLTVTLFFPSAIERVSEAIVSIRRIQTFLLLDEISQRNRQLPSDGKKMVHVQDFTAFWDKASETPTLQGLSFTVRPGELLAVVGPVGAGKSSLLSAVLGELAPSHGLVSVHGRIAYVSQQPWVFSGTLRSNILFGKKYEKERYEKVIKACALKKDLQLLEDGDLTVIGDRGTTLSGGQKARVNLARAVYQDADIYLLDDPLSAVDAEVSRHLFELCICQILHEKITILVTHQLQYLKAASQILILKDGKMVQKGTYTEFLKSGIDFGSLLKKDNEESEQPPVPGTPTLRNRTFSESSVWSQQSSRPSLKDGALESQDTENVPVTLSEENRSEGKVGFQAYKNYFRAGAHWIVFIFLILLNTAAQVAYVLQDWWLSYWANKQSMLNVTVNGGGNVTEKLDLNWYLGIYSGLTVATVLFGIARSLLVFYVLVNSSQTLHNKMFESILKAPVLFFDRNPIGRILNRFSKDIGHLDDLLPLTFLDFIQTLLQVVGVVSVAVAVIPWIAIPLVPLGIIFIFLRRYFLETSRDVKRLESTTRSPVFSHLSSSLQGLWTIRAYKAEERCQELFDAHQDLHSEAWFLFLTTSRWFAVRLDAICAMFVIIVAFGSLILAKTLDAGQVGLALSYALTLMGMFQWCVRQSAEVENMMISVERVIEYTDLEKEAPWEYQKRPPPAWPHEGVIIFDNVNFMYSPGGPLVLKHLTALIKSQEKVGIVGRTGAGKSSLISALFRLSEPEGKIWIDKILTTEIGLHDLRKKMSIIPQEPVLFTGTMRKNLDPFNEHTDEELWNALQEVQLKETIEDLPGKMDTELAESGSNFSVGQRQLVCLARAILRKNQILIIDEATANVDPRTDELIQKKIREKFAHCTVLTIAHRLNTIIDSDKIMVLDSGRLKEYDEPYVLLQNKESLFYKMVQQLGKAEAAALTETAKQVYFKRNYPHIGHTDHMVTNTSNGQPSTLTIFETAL
Experiment: TP_TRANSPORTER: efflux in CEM-r1 cells
Assay type: functional, cell-based

Row | SMILES | Activity
1 | Cc1cn([C@H]2C[C@H](N=[N+]=[N-])[C@@H](COP(=O)(O)O)O2)c(=O)[nH]c1=O [AZIDOTHYMIDINE MONOPHOSPHATE] | substrate [+]
2 | Nc1ncnc2c1ncn2CCOCP(=O)(O)O [ADEFOVIR] | substrate [+]
